Data from the NIST ThermoML archive (doi:10.1021/acs.jced.8b00589).
± gives the expanded uncertainty stated by the source.

Assay: xn = mol fraction of the nth substance listed
Details: for surface tension liquid-gas: Ring tensiometer; for viscosity / speed of sound / mass density: 100 kPa, Liquid; for viscosity: Capillary tube (Ostwald / Ubbelohde) method; for speed of sound: Frequency=2 MHz, Linear variable-path acoustic interferometer; for mass density: Vibrating tube method

CCC(C)(C)OC [2-methoxy-2-methylbutane] + Cc1cccc(C)c1
Details	mass density [kg/m3]	speed of sound [m/s]	surface tension liquid-gas [mN/m]	viscosity [mPa·s]
298.15 K, x1 = 0.1462	844.1 ± 1	1299 ± 10	26.87 ± 0.89	0.561 ± 0.03
298.15 K, x1 = 0.2667	833.4 ± 1	1269.4 ± 10	25.84 ± 0.88	0.541 ± 0.03
298.15 K, x1 = 0.4165	821.1 ± 1	1235 ± 10	24.69 ± 0.88	0.519 ± 0.03
298.15 K, x1 = 0.4774	816.2 ± 1	1218.9 ± 10	24.24 ± 0.87	0.51 ± 0.03
298.15 K, x1 = 0.5331	811.4 ± 1	1205.2 ± 10	23.82 ± 0.87	0.502 ± 0.03
298.15 K, x1 = 0.6068	805.3 ± 1	1189.2 ± 10	23.22 ± 0.87	0.491 ± 0.03
298.15 K, x1 = 0.7371	794.6 ± 1	1165.8 ± 10	22.07 ± 0.86	0.47 ± 0.03
298.15 K, x1 = 0.8642	782.7 ± 1	1138 ± 10	20.93 ± 0.86	0.447 ± 0.03
298.15 K, x1 = 1	765.6 ± 1	1118 ± 10	19.72 ± 0.85	0.424 ± 0.03
308.15 K, x1 = 0.1462	833.6 ± 1	1254.4 ± 10	25.64 ± 0.88	0.501 ± 0.03
308.15 K, x1 = 0.2667	822.5 ± 1	1220.7 ± 10	24.62 ± 0.87	0.485 ± 0.03
308.15 K, x1 = 0.4165	810.2 ± 1	1182.3 ± 10	23.47 ± 0.87	0.468 ± 0.03
308.15 K, x1 = 0.4774	805.1 ± 1	1167 ± 10	23.02 ± 0.87	0.461 ± 0.03
308.15 K, x1 = 0.5331	800.3 ± 1	1155.1 ± 10	22.61 ± 0.87	0.454 ± 0.03
308.15 K, x1 = 0.6068	794.4 ± 1	1140.5 ± 10	22.06 ± 0.86	0.445 ± 0.03
308.15 K, x1 = 0.7371	783.3 ± 1	1118.1 ± 10	20.94 ± 0.86	0.428 ± 0.03
308.15 K, x1 = 0.8642	771.8 ± 1	1092.8 ± 10	19.83 ± 0.85	0.409 ± 0.03
308.15 K, x1 = 1	756.3 ± 1	1075.6 ± 10	18.66 ± 0.85	0.39 ± 0.03
318.15 K, x1 = 0.1462	823.8 ± 1	1209.3 ± 10	24.36 ± 0.87	0.46 ± 0.03
318.15 K, x1 = 0.2667	813.1 ± 1	1174.2 ± 10	23.37 ± 0.87	0.445 ± 0.03
318.15 K, x1 = 0.4165	800.2 ± 1	1134.5 ± 10	22.25 ± 0.86	0.428 ± 0.03
318.15 K, x1 = 0.4774	794.8 ± 1	1118.7 ± 10	21.81 ± 0.86	0.421 ± 0.03
318.15 K, x1 = 0.5331	790.4 ± 1	1105.4 ± 10	21.41 ± 0.86	0.415 ± 0.03
318.15 K, x1 = 0.6068	784.1 ± 1	1090.6 ± 10	20.9 ± 0.86	0.407 ± 0.03
318.15 K, x1 = 0.7371	772.8 ± 1	1067.2 ± 10	19.83 ± 0.85	0.391 ± 0.03
318.15 K, x1 = 0.8642	761.3 ± 1	1045.9 ± 10	18.77 ± 0.85	0.374 ± 0.03
318.15 K, x1 = 1	746.3 ± 1	1030.2 ± 10	17.65 ± 0.85	0.357 ± 0.03
323.15 K, x1 = 0.1462	819.2 ± 1	1186.3 ± 10	23.73 ± 0.87	0.424 ± 0.03
323.15 K, x1 = 0.2667	808 ± 1	1150.5 ± 10	22.75 ± 0.87	0.412 ± 0.03
323.15 K, x1 = 0.4165	795.3 ± 1	1107.7 ± 10	21.65 ± 0.86	0.399 ± 0.03
323.15 K, x1 = 0.4774	789.8 ± 1	1090.3 ± 10	21.21 ± 0.86	0.393 ± 0.03
323.15 K, x1 = 0.5331	785.1 ± 1	1076.2 ± 10	20.82 ± 0.86	0.389 ± 0.03
323.15 K, x1 = 0.6068	778.8 ± 1	1061.4 ± 10	20.32 ± 0.86	0.382 ± 0.03
323.15 K, x1 = 0.7371	767.7 ± 1	1037.8 ± 10	19.27 ± 0.85	0.369 ± 0.03
323.15 K, x1 = 0.8642	755.8 ± 1	1017 ± 10	18.23 ± 0.85	0.354 ± 0.03
323.15 K, x1 = 1	741.4 ± 1	1003 ± 10	17.13 ± 0.84	0.34 ± 0.03
328.15 K, x1 = 0.1462	814.4 ± 1	1160.6 ± 10	23.1 ± 0.87	0.414 ± 0.03
328.15 K, x1 = 0.2667	803.3 ± 1	1124 ± 10	22.14 ± 0.86	0.401 ± 0.03
328.15 K, x1 = 0.4165	790.5 ± 1	1082.2 ± 10	21.05 ± 0.86	0.387 ± 0.03
328.15 K, x1 = 0.4774	785.2 ± 1	1065.1 ± 10	20.62 ± 0.86	0.382 ± 0.03
328.15 K, x1 = 0.5331	780.3 ± 1	1051.8 ± 10	20.23 ± 0.86	0.377 ± 0.03
328.15 K, x1 = 0.6068	773.7 ± 1	1037.4 ± 10	19.73 ± 0.85	0.37 ± 0.03
328.15 K, x1 = 0.7371	762.6 ± 1	1013.9 ± 10	18.71 ± 0.85	0.357 ± 0.03
328.15 K, x1 = 0.8642	750.8 ± 1	995.44 ± 10	17.69 ± 0.85	0.342 ± 0.03
328.15 K, x1 = 1	736.5 ± 1	985.2 ± 10	16.62 ± 0.84	0.328 ± 0.03

CCC(C)(C)OC [2-methoxy-2-methylbutane] + CCCCCC
Details	mass density [kg/m3]	speed of sound [m/s]	surface tension liquid-gas [mN/m]	viscosity [mPa·s]
298.15 K, x1 = 0.1632	672.8 ± 1	1077.8 ± 10	17.99 ± 0.85	0.311 ± 0.03
298.15 K, x1 = 0.2584	683.2 ± 1	1082.2 ± 10	18.21 ± 0.85	0.318 ± 0.03
298.15 K, x1 = 0.3742	695.5 ± 1	1087.5 ± 10	18.5 ± 0.85	0.327 ± 0.03
298.15 K, x1 = 0.4276	701.6 ± 1	1088.6 ± 10	18.62 ± 0.85	0.331 ± 0.03
298.15 K, x1 = 0.5464	714.8 ± 1	1092.8 ± 10	18.73 ± 0.85	0.346 ± 0.03
298.15 K, x1 = 0.6121	722.3 ± 1	1096.1 ± 10	18.88 ± 0.85	0.356 ± 0.03
298.15 K, x1 = 0.7457	737.2 ± 1	1103.5 ± 10	19.15 ± 0.85	0.381 ± 0.03
298.15 K, x1 = 0.8625	750.1 ± 1	1112.2 ± 10	19.42 ± 0.85	0.402 ± 0.03
298.15 K, x1 = 1	765.6 ± 1	1118 ± 10	19.72 ± 0.85	0.424 ± 0.03
308.15 K, x1 = 0.1632	663.2 ± 1	1035.5 ± 10	16.88 ± 0.84	0.274 ± 0.03
308.15 K, x1 = 0.2584	673.8 ± 1	1039.4 ± 10	17.1 ± 0.84	0.281 ± 0.03
308.15 K, x1 = 0.3742	686.5 ± 1	1045.1 ± 10	17.4 ± 0.84	0.293 ± 0.03
308.15 K, x1 = 0.4276	692.3 ± 1	1046.8 ± 10	17.52 ± 0.84	0.298 ± 0.03
308.15 K, x1 = 0.5464	705.2 ± 1	1049.6 ± 10	17.64 ± 0.85	0.313 ± 0.03
308.15 K, x1 = 0.6121	712.5 ± 1	1053.2 ± 10	17.79 ± 0.85	0.322 ± 0.03
308.15 K, x1 = 0.7457	727.4 ± 1	1060.4 ± 10	18.07 ± 0.85	0.342 ± 0.03
308.15 K, x1 = 0.8625	740.7 ± 1	1069.2 ± 10	18.35 ± 0.85	0.362 ± 0.03
308.15 K, x1 = 1	756.3 ± 1	1075.6 ± 10	18.66 ± 0.85	0.39 ± 0.03
318.15 K, x1 = 0.1632	653.5 ± 1	984.7 ± 10	15.78 ± 0.84	0.249 ± 0.03
318.15 K, x1 = 0.2584	663.8 ± 1	988.75 ± 10	16.01 ± 0.84	0.256 ± 0.03
318.15 K, x1 = 0.3742	676.6 ± 1	994.36 ± 10	16.33 ± 0.84	0.266 ± 0.03
318.15 K, x1 = 0.4276	682.4 ± 1	996.61 ± 10	16.46 ± 0.84	0.271 ± 0.03
318.15 K, x1 = 0.5464	695.3 ± 1	1002.4 ± 10	16.58 ± 0.84	0.284 ± 0.03
318.15 K, x1 = 0.6121	702.5 ± 1	1006.8 ± 10	16.74 ± 0.84	0.292 ± 0.03
318.15 K, x1 = 0.7457	717.7 ± 1	1013.8 ± 10	17.03 ± 0.84	0.311 ± 0.03
318.15 K, x1 = 0.8625	730.6 ± 1	1022.8 ± 10	17.32 ± 0.84	0.331 ± 0.03
318.15 K, x1 = 1	746.3 ± 1	1030.2 ± 10	17.65 ± 0.85	0.357 ± 0.03
323.15 K, x1 = 0.1632	648.6 ± 1	963.82 ± 10	15.22 ± 0.84	0.239 ± 0.03
323.15 K, x1 = 0.2584	658.8 ± 1	967.24 ± 10	15.47 ± 0.84	0.245 ± 0.03
323.15 K, x1 = 0.3742	671.5 ± 1	971.83 ± 10	15.78 ± 0.84	0.254 ± 0.03
323.15 K, x1 = 0.4276	677.3 ± 1	973.34 ± 10	15.92 ± 0.84	0.258 ± 0.03
323.15 K, x1 = 0.5464	690.4 ± 1	977.27 ± 10	16.04 ± 0.84	0.27 ± 0.03
323.15 K, x1 = 0.6121	697.6 ± 1	980.49 ± 10	16.2 ± 0.84	0.277 ± 0.03
323.15 K, x1 = 0.7457	712.5 ± 1	984.8 ± 10	16.5 ± 0.84	0.294 ± 0.03
323.15 K, x1 = 0.8625	725.8 ± 1	994.84 ± 10	16.8 ± 0.84	0.312 ± 0.03
323.15 K, x1 = 1	741.4 ± 1	1003 ± 10	17.13 ± 0.84	0.335 ± 0.03
328.15 K, x1 = 0.1632	643.6 ± 1	942.3 ± 10	14.67 ± 0.83	0.23 ± 0.03
328.15 K, x1 = 0.2584	653.7 ± 1	945.14 ± 10	14.92 ± 0.84	0.235 ± 0.03
328.15 K, x1 = 0.3742	666.5 ± 1	949.52 ± 10	15.24 ± 0.84	0.244 ± 0.03
328.15 K, x1 = 0.4276	672.3 ± 1	951.24 ± 10	15.38 ± 0.84	0.248 ± 0.03
328.15 K, x1 = 0.5464	685.3 ± 1	955.05 ± 10	15.5 ± 0.84	0.259 ± 0.03
328.15 K, x1 = 0.6121	692.6 ± 1	958.72 ± 10	15.67 ± 0.84	0.266 ± 0.03
328.15 K, x1 = 0.7457	707.5 ± 1	963.63 ± 10	15.97 ± 0.84	0.283 ± 0.03
328.15 K, x1 = 0.8625	720.8 ± 1	974.08 ± 10	16.27 ± 0.84	0.301 ± 0.03
328.15 K, x1 = 1	736.5 ± 1	985.22 ± 10	16.62 ± 0.84	0.323 ± 0.03
